From US20260265246A1 (ICAHN SCHOOL OF MEDICINE AT MOUNT SINAI, priority 2021, published 2026)
Read-outs that look alike come from different tables or passages of the source.

Assays:
5HT2A receptor [1] = target: T1, 5HT2A receptor (Homo sapiens, UniProt P28223); assay: biochemical; assay type: binding; set-up: expressed in transfected cells; crude membranes
5HT2A receptor [2] = target: T1, 5HT2A receptor; assay: cell-based; set-up: expressed in transfected cells; host or cells: HEK293T cells, transient co-transfection; conditions: for Emax: HEK-293T
5HT2A receptor [3] = target: T1, 5HT2A receptor; assay: cell-based; set-up: expressed in transfected cells; host or cells: HEK293T cells, transient co-transfection; conditions: for Emax: HEK-293T; remark: listed apart in the source
[4] = 5HT2A Ki (nM), secondary radioligand binding, Ki from IC50 by Cheng-Prusoff
[5] = 5HT2A β-Arr EC50 (nM), BRET1 beta-arrestin2 recruitment, HEK293T cells
[6] = BRET1 beta-arrestin2 recruitment, HEK293T cells, normalized to 5-HT, read-out: 5HT2A β-Arr Emax (%)
[7] = BRET2 Gαq dissociation, HEK293T cells, read-out: 5HT2A Gq EC50
[8] = BRET2 Gαq dissociation, HEK293T cells, normalized to 5-HT, read-out: 5HT2A Gq Emax (%)
[9] = 5HT2A Gq EC50 (nM), BRET2 Gαq dissociation, HEK293T cells
[10] = 5HT2A Ki (nM), secondary binding assay, Cheng-Prusoff
[11] = 5HT2A β-Arr EC50 (nM), BRET1 beta-arrestin2 recruitment, HEK293T
[12] = BRET1 beta-arrestin2 recruitment, HEK293T, normalized to 5-HT, read-out: 5HT2A β-Arr Emax (%)
[13] = 5HTA Gq EC50 (nM), BRET2 Gαq dissociation, HEK293T
[14] = BRET2 Gαq dissociation, HEK293T, normalized to 5-HT, read-out: 5HTA Gq Emax (%)
[15] = secondary radioligand binding, Ki from IC50 by Cheng-Prusoff, read-out: 5HT2A Ki
[16] = BRET1 beta-arrestin2 recruitment, HEK293T cells, read-out: 5HT2A β-Arr EC50
[17] = BRET2 Gαq dissociation, HEK293T, read-out: 5HTA Gq EC50
[18] = read-out: 5HT2A β-Arr Emax (%), BRET1 beta-arrestin2 recruitment, HEK293T, normalized to 5-HT
[19] = read-out: 5HTA Gq Emax (%), BRET2 Gαq dissociation, HEK293T, normalized to 5-HT
[20] = secondary binding assay, Cheng-Prusoff, read-out: 5HT2A Ki

T1 sequence (P28223 whole entry): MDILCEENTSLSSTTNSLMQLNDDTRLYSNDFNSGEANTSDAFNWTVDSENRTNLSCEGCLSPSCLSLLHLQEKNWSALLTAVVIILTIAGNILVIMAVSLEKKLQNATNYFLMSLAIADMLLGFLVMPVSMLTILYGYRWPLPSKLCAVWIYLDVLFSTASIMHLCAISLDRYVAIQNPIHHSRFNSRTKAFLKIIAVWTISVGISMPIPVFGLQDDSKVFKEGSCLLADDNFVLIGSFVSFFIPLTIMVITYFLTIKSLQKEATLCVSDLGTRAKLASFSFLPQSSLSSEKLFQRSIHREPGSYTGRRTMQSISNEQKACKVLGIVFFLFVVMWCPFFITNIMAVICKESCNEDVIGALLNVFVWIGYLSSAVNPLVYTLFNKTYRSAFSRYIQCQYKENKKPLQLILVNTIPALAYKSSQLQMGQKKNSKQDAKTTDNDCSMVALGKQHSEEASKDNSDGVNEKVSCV

Row | Compound | Ki (5HT2A receptor [1]; [4]) | EC50 (5HT2A receptor [2]; [5]) | Emax (5HT2A receptor [2]; [6]) | Emax (5HT2A receptor [3]; [8]) | Ki (5HT2A receptor [1]; [10]) | EC50 (5HT2A receptor [2]; [11]) | Emax (5HT2A receptor [2]; [12]) | EC50 (5HT2A receptor [3]; [13]) | Emax (5HT2A receptor [3]; [14]) | other results
1 | Cc1cccc2[nH]nc(C3=CCCN(C)C3)c12 [Example 97, 4-methyl-3-(1-methyl-1,2,5,6-tetrahydropyridin-3-yl)-1H-indazole] | 786 nM | 605 nM | 64.6% | 69% |  |  |  |  |  | EC50 (5HT2A receptor [3]; [7]): 80.4 nM
2 | CN1CCC=C(c2c[nH]c3nccc(Cl)c23)C1 [Example 15, 4-chloro-3-(1-methyl-1,2,5,6-tetrahydropyridin-3-yl)-1H-pyrrolo[2,3-b]pyridine] | 465 nM | 683 nM | 31.5% | 68.8% |  |  |  |  |  | EC50 (5HT2A receptor [3]; [9]): 23.5 nM
3 | Cc1cccc2c(C3=CCCNC3)c[nH]c12 [Example 41, 7-methyl-3-(1,2,5,6-tetrahydropyridin-3-yl)-1H-indole] | 1380 nM | 1410 nM | 83.2% | 92.6% |  |  |  |  |  | EC50 (5HT2A receptor [3]; [9]): 234 nM
4 | Clc1cccc2c(-c3cncnc3)n[nH]c12 [Example 216, 7-chloro-3-(pyrimidin-5-yl)-1H-indazole] |  |  |  |  | 4390 nM | 729 nM | 53.8% | 27.5 nM | 85.1% | 
5 | COc1cccc2[nH]nc(C3=CCCN(C)C3)c12 [Example 100, 4-methoxy-3-(1-methyl-1,2,5,6-tetrahydropyridin-3-yl)-1H-indazole] | 349 nM | 460 nM | 52.4% | 63.9% |  |  |  |  |  | EC50 (5HT2A receptor [3]; [7]): 91.6 nM
6 | COc1ccnc2[nH]cc(C3=CCCN(C)C3)c12 [Example 14, 4-methoxy-3-(1-methyl-1,2,5,6-tetrahydropyridin-3-yl)-1H-pyrrolo[2,3-b]pyridine] |  |  | 32.2% | 67.1% |  |  |  |  |  | Ki (5HT2A receptor [1]; [15]): 43 nM; EC50 (5HT2A receptor [2]; [16]): 74.1 nM; EC50 (5HT2A receptor [3]; [7]): 72.7 nM
7 | Cc1cccc2c(C3=CCCN(C)C3)n[nH]c12 [Example 105, 7-methyl-3-(1-methyl-1,2,5,6-tetrahydropyridin-3-yl)-1H-indazole] | 1340 nM | 432 nM | 45.7% | 75.4% |  |  |  |  |  | EC50 (5HT2A receptor [3]; [7]): 35.4 nM
8 | CCCN1CCC=C(c2n[nH]c3c(CC)cccc23)C1 [Example 237, 7-ethyl-3-(1-propyl-1,2,5,6-tetrahydropyridin-3-yl)-1H-indazole] |  |  |  |  | 389 nM | 1580 nM | 39.8% |  | 37.7% | EC50 (5HT2A receptor [3]; [17]): 33.6 nM
9 | N#Cc1cccc2c(C34CNCCC3C4)n[nH]c12 (stereo not shown) [Example 195, 3-(3-azabicyclo[4.1.0]heptan-1-yl)-1H-indazole-7-carbonitrile] |  |  |  |  | > 10000 nM | 1040 nM | 21.7% | 1090 nM | 77.4% | 
10 | [2H]C([2H])([2H])N1CCC=C(c2n[nH]c3c(Cl)cccc23)C1 [Example 150, 7-chloro-3-(1-(methyl-d3)-1,2,5,6-tetrahydropyridin-3-yl)-1H-indazole] |  |  |  |  | 842 nM | 29.9 nM |  | 13.3 nM |  | Emax (5HT2A receptor [2]; [18]): 60.9%; Emax (5HT2A receptor [3]; [19]): 95.3%
11 | Fc1cccc2c(C3=CCCN(Cc4ccccc4)C3)c[nH]c12 [Example 73, 3-(1-benzyl-1,2,5,6-tetrahydropyridin-3-yl)-7-fluoro-1H-indole] | 151 nM | 331 nM | 56.5% | 81.9% |  |  |  |  |  | EC50 (5HT2A receptor [3]; [9]): 116 nM
12 | CCCN1CCC=C(c2c[nH]c3c(CC)cccc23)C1 [Example 158, 7-ethyl-3-(1-propyl-1,2,5,6-tetrahydropyridin-3-yl)-1H-indole] |  |  |  |  | 368 nM | 120 nM | 32.6% |  | 82.2% | EC50 (5HT2A receptor [3]; [17]): 78.4 nM
13 | CN1CCC=C(c2c[nH]c3c(C(F)(F)F)cccc23)C1 [Example 59, 3-(1-methyl-1,2,5,6-tetrahydropyridin-3-yl)-7-(trifluoromethyl)-1H-indole] |  |  | 56.9% | 81.7% |  |  |  |  |  | Ki (5HT2A receptor [1]; [15]): 25.8 nM; EC50 (5HT2A receptor [2]; [16]): 75.5 nM; EC50 (5HT2A receptor [3]; [7]): 17.8 nM
14 | CCCN1CCC=C(c2c[nH]c3c(F)cccc23)C1 [Example 156, 7-fluoro-3-(1-propyl-1,2,5,6-tetrahydropyridin-3-yl)-1H-indole] |  |  |  |  | 164 nM |  | 58.4% |  | 103% | EC50 (5HT2A receptor [2]; BRET1 beta-arrestin2 recruitment, HEK293T, read-out: 5HT2A β-Arr EC50): 61.2 nM; EC50 (5HT2A receptor [3]; [17]): 20.2 nM
15 | FC1(F)C2CNCC21c1n[nH]c2c(Cl)cccc12 (stereo not shown) [Example 199, 7-chloro-3-(6,6-difluoro-3-azabicyclo[3.1.0]hexan-1-yl)-1H-indazole] |  |  |  |  | 3440 nM | 956 nM | 76.5% | 174 nM | 87.1% | 
16 | Cc1cccc2c(N3CCNCC3)n[nH]c12 [Example 230, 7-methyl-3-(piperazin-1-yl)-1H-indazole] |  |  |  |  | 715 nM | 917 nM | 45.3% | 248 nM | 66.1% | 
17 | CN1CC=C(c2c[nH]c3c(Cl)cccc23)C1 [Example 210, 7-chloro-3-(1-methyl-2,5-dihydro-1H-pyrrol-3-yl)-1H-indole] |  |  |  |  |  | 119 nM | 33.6% |  | 74.9% | Ki (5HT2A receptor [1]; [20]): 86.1 nM; EC50 (5HT2A receptor [3]; [17]): 33.1 nM
18 | Fc1ccc2c(C34CNCC3C4)c[nH]c2c1 (stereo not shown) [Example 281, 3-(3-azabicyclo[3.1.0]hexan-1-yl)-6-fluoro-1H-indole] |  |  |  |  |  | 369 nM | 27.9% |  | 66.3% | Ki (5HT2A receptor [1]; [20]): 61.9 nM; EC50 (5HT2A receptor [3]; [17]): 52.1 nM
19 | Clc1cccc2c(C34CNCCC3C4)c[nH]c12 (stereo not shown) [Example 269, 3-(3-azabicyclo[4.1.0]heptan-1-yl)-7-chloro-1H-indole] |  |  |  |  | 743 nM | 1380 nM |  | 257 nM |  | Emax (5HT2A receptor [2]; [18]): 30%; Emax (5HT2A receptor [3]; [19]): 88.8%
20 | Clc1cccc2c(C3=CCCN(Cc4ccccc4)C3)c[nH]c12 [Example 67, 3-(1-benzyl-1,2,5,6-tetrahydropyridin-3-yl)-7-chloro-1H-indole] | 90.2 nM | 756 nM | 46.6% | 48.8% |  |  |  |  |  | EC50 (5HT2A receptor [3]; [9]): 44.1 nM
21 | CCCc1cccc2c(C3=CCCN(CC)C3)c[nH]c12 [Example 245, 3-(1-ethyl-1,2,5,6-tetrahydropyridin-3-yl)-7-propyl-1H-indole] |  |  |  |  | 600 nM | 1300 nM |  | 392 nM |  | Emax (5HT2A receptor [2]; [18]): 44.8%; Emax (5HT2A receptor [3]; [19]): 87.5%
22 | Cc1c(F)ccc2c(C34CNCC3C4)c[nH]c12 (stereo not shown) [Example 283, 3-(3-azabicyclo[3.1.0]hexan-1-yl)-6-fluoro-7-methyl-1H-indole] |  |  |  |  | 141 nM | 797 nM |  | 88.2 nM |  | Emax (5HT2A receptor [2]; [18]): 41.5%; Emax (5HT2A receptor [3]; [19]): 104%
23 | Clc1ccnc2[nH]cc(C3=CCCNC3)c12 [Example 11, 4-chloro-3-(1,2,5,6-tetrahydropyridin-3-yl)-1H-pyrrolo[2,3-b]pyridine] | 273 nM | 904 nM | 43.7% | 84.7% |  |  |  |  |  | EC50 (5HT2A receptor [3]; [9]): 79.9 nM
24 | COc1cccc2[nH]cc(C3=CCCN(C)C3)c12 [Example 20, 4-methoxy-3-(1-methyl-1,2,5,6-tetrahydropyridin-3-yl)-1H-indole] |  |  | 47.7% | 91% |  |  |  |  |  | Ki (5HT2A receptor [1]; [15]): 60 nM; EC50 (5HT2A receptor [2]; [16]): 61.8 nM; EC50 (5HT2A receptor [3]; [7]): 3 nM
25 | CCCN1CCC=C(c2c[nH]c3c(C)c(F)ccc23)C1 [Example 162, 6-fluoro-7-methyl-3-(1-propyl-1,2,5,6-tetrahydropyridin-3-yl)-1H-indole] |  |  |  |  | 1140 nM | 303 nM | 23.4% | 260 nM | 80.6% | 
26 | Clc1cc(Br)cc2c(C3CNC3)c[nH]c12 [Example 267, 3-(azetidin-3-yl)-5-bromo-7-chloro-1H-indole] |  |  |  |  | 175 nM | 1050 nM | 20.8% | 949 nM | 64% | 
27 | CCCN1CCC=C(c2c[nH]c3c(Cl)c(F)ccc23)C1 [Example 160] |  |  |  |  | 151 nM | 144 nM |  | 74.5 nM |  | Emax (5HT2A receptor [2]; [18]): 30.9%; Emax (5HT2A receptor [3]; [19]): 84.1%
28 | Fc1ccc2c(C3=CCCNC3)c[nH]c2n1 [Example 133, 6-fluoro-3-(1,2,5,6-tetrahydropyridin-3-yl)-1H-pyrrolo[2,3-b]pyridine] |  |  |  |  | 292 nM | 897 nM |  | 166 nM |  | Emax (5HT2A receptor [2]; [18]): 38.1%; Emax (5HT2A receptor [3]; [19]): 77.2%
29 | CN1CCC=C(c2n[nH]c3c(C#N)cccc23)C1 [Example 108, 3-(1-methyl-1,2,5,6-tetrahydropyridin-3-yl)-1H-indazole-7-carbonitrile] | 1380 nM | 494 nM | 72.5% | 102% |  |  |  |  |  | EC50 (5HT2A receptor [3]; [9]): 108 nM
